Measurements: patent publication US8440628B2, “Medical compositions containing ghrelin” (Daiichi Sankyo Company, Limited, priority 2002, dated 2013)
Where two headings read alike, the source gives them in different places.

Experiments:
[1] = type: physicochemical
Method: Human ghrelin, which is one of the ghrelins, was dissolved in the 0.05M glycine hydrochloride buffer solutions (pH 3.5) to obtain an aqueous solution containing human ghrelin with following five concentrations, which are applicable for medical usage.
0.03 nmol/mL (0.1 μg/mL); 0.3 nmol/mL (1.0 μg/mL);
3.0 nmol/mL (10.0 μg/mL); 0.3 μmol/mL (1.0 mg/mL);
Each solutions were stored at 25±2° C. for 24 hours, and after storage, the HPLC analyses of each solutions were conducted to calculate the residual ratios from the concentration of human ghrelin. The changes of pH value were also examined to confirm no significant changes of pH in solutions occurred.
The residual ratio of the solution before storage was referred to as 100%, and the residual ratio of each solution after storage and the changes of pH value of each solution were summarized in the following Table 4.

[2] = Adsorption inhibiting effect of anti-adsorbents on human ghrelin in glass and polypropylene test tubes (Example 9); type: physicochemical; settings: human ghrelin 1.0 μg/mL in 5% mannitol-0.05M glycine hydrochloride buffer (pH 3.5), anti-adsorbent None (control)
Method: As the anti-adsorbent, the surfactant, that is, polyoxyethylene sorbitan monooleate (hereinafter, referred to as Tween® 80), and benzalkonium chloride were selected.
The anti-adsorbent was added to this solution with 0.01% or 0.1% concentration.
The human ghrelin concentrations of each solution were measured by HPLC method right after preparation, and these solutions were replaced in glass test tubes. After that, each solution were further replaced in new glass test tubes, and same operation was repeated for 5 and 10 times, then, the human ghrelin concentrations of each treated solution were measured by HPLC method. As a control, the solution not containing anti-adsorbent was examined.
Same procedure was repeated by using test tube made by polypropylene instead of glass test tube.

[3] = h. ghrelin 0.03 nmol/mL in 0.05M glycine hydrochloride buffer (pH 3.5), after storage for 25° C./24 hours
[4] = h. ghrelin 0.03 nmol/mL in 0.05M glycine hydrochloride buffer (pH 3.5), just after preparation
[5] = h. ghrelin 0.3 nmol/mL in 0.05M glycine hydrochloride buffer (pH 3.5), after storage for 25° C./24 hours
[6] = h. ghrelin 0.3 nmol/mL in 0.05M glycine hydrochloride buffer (pH 3.5), just after preparation
[7] = h. ghrelin 3.0 nmol/mL in 0.05M glycine hydrochloride buffer (pH 3.5), after storage for 25° C./24 hours
[8] = h. ghrelin 3.0 nmol/mL in 0.05M glycine hydrochloride buffer (pH 3.5), just after preparation
[9] = h. ghrelin 0.3 μmol/mL in 0.05M glycine hydrochloride buffer (pH 3.5), after storage for 25° C./24 hours
[10] = h. ghrelin 0.3 μmol/mL in 0.05M glycine hydrochloride buffer (pH 3.5), just after preparation
[11] = h. ghrelin 3 μmol/mL in 0.05M glycine hydrochloride buffer (pH 3.5), after storage for 25° C./24 hours
[12] = h. ghrelin 3 μmol/mL in 0.05M glycine hydrochloride buffer (pH 3.5), just after preparation

Residual ratio [1, 3]: 62%
pH [1, 3]: 3.5
Residual ratio [1, 4]: 100%
pH [1, 4]: 3.4
Residual ratio [1, 5]: 98%
pH [1, 5]: 3.5
Residual ratio [1, 6]: 100%
pH [1, 6]: 3.5
Residual ratio [1, 7]: 98%
pH [1, 7]: 3.6
Residual ratio [1, 8]: 100%
pH [1, 8]: 3.5
Residual ratio [1, 9]: 101%
pH [1, 9]: 3.3
Residual ratio [1, 10]: 100%
pH [1, 10]: 3.4
Residual ratio [1, 11]: 101%
pH [1, 11]: 3.3
Residual ratio [1, 12]: 100%
pH [1, 12]: 3.4
Human ghrelin concentration of the solution (Initial Conc. = 100) ([2]; Glass tube, replaced 5 times): 0
Human ghrelin concentration of the solution (Initial Conc. = 100) ([2]; Glass tube, replaced 10 times): 0
Human ghrelin concentration of the solution (Initial Conc. = 100) ([2]; Initial Conc.): 100
Human ghrelin concentration of the solution (Initial Conc. = 100) ([2]; Polypropylene tube, replaced 5 times): 51
Human ghrelin concentration of the solution (Initial Conc. = 100) ([2]; Polypropylene tube, replaced 10 times): 19
Compound: CCCCCCCC(=O)OC[C@H](NC(=O)[C@H](CO)NC(=O)CN)C(=O)N[C@@H](Cc1ccccc1)C(=O)N[C@@H](CC(C)C)C(=O)N[C@@H](CO)C(=O)N1CCC[C@H]1C(=O)N[C@@H](CCC(=O)O)C(=O)N[C@@H](Cc1c[nH]cn1)C(=O)N[C@@H](CCC(N)=O)C(=O)N[C@@H](CCCNC(=N)N)C(=O)N[C@H](C(=O)N[C@@H](CCC(N)=O)C(=O)N[C@@H](CCC(N)=O)C(=O)N[C@@H](CCCNC(=N)N)C(=O)N[C@@H](CCCCN)C(=O)N[C@@H](CCC(=O)O)C(=O)N[C@@H](CO)C(=O)N[C@@H](CCCCN)C(=O)N[C@@H](CCCCN)C(=O)N1CCC[C@H]1C(=O)N1CCC[C@H]1C(=O)N[C@@H](C)C(=O)N[C@@H](CCCCN)C(=O)N[C@@H](CC(C)C)C(=O)N[C@@H](CCC(N)=O)C(=O)N1CCC[C@H]1C(=O)N[C@@H](CCCNC(=N)N)C(=O)O)C(C)C [Human ghrelin]
